Laboratory results reported in ChEMBL document CHEMBL1135045, “alpha(1)-Adrenoceptor antagonists. Rational design, synthesis and biological evaluation of new trazodone-like compounds” (Bioorg Med Chem Lett, 2002).

Legend:
[1] = target: T1, Adrenergic receptor alpha-2 (Rattus norvegicus, UniProt P22086+P19328+P22909); assay: Binding affinity by its ability to displace [3H]rauwolscine radioligand from Alpha-2 adrenergic receptor on rat cerebral cortex; type: tissue-based
T1 sequence (P22086 whole entry): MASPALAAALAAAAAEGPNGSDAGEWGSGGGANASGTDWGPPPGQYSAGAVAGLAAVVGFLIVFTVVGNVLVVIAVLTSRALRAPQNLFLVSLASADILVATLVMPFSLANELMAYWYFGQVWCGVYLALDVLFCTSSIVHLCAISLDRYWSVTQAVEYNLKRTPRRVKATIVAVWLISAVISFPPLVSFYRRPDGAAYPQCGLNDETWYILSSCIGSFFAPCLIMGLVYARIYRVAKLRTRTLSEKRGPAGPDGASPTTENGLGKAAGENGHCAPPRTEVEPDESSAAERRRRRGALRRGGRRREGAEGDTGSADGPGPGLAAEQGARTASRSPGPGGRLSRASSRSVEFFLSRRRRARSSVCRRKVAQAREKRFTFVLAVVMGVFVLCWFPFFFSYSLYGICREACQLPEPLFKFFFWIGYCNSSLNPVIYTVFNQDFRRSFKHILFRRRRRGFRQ
T1 sequence (P19328 whole entry): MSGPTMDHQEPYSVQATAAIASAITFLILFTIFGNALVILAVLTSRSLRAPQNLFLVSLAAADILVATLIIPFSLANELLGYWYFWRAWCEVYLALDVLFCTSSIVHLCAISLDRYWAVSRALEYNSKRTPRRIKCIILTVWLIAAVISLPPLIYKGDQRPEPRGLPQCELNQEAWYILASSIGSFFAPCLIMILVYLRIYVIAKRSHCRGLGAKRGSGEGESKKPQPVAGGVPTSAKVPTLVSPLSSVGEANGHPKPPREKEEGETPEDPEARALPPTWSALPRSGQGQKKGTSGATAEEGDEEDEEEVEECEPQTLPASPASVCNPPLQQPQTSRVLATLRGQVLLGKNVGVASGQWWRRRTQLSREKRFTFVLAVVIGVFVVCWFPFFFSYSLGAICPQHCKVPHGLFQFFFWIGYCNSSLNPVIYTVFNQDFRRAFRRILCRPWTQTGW
T1 sequence (P22909 whole entry): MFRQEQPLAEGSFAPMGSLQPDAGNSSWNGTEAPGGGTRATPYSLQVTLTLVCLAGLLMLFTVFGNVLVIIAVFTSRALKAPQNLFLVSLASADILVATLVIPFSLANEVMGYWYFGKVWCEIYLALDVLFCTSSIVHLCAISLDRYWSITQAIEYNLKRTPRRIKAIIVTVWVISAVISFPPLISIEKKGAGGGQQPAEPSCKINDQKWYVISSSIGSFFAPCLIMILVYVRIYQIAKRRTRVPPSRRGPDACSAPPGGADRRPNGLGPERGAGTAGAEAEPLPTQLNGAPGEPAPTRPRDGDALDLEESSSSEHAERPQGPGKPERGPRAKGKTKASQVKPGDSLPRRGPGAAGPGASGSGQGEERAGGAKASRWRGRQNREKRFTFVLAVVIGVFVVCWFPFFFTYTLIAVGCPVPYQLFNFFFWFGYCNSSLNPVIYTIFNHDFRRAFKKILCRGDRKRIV

[2] = target: T2, Adrenergic receptor alpha-1 (Rattus norvegicus, UniProt P15823+P23944+P43140); assay: Binding affinity by its ability to displace [3H]prazosin radioligand from Alpha-1 adrenergic receptor on rat cerebral cortex; type: tissue-based
T2 sequence (P15823 whole entry): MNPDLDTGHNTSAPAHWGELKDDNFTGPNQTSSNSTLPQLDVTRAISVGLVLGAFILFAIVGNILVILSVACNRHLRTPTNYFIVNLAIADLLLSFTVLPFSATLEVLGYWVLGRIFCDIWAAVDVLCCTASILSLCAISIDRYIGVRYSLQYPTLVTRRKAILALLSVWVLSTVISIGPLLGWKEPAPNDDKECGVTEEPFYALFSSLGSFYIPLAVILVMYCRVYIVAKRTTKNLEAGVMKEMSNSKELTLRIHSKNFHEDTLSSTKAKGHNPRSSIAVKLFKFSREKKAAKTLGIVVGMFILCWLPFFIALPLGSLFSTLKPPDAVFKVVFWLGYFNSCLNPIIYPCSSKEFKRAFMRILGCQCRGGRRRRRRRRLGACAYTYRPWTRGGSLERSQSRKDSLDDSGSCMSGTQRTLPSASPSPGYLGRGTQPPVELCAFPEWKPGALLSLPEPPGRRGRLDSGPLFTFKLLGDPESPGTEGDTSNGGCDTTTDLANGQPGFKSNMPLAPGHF
T2 sequence (P23944 whole entry): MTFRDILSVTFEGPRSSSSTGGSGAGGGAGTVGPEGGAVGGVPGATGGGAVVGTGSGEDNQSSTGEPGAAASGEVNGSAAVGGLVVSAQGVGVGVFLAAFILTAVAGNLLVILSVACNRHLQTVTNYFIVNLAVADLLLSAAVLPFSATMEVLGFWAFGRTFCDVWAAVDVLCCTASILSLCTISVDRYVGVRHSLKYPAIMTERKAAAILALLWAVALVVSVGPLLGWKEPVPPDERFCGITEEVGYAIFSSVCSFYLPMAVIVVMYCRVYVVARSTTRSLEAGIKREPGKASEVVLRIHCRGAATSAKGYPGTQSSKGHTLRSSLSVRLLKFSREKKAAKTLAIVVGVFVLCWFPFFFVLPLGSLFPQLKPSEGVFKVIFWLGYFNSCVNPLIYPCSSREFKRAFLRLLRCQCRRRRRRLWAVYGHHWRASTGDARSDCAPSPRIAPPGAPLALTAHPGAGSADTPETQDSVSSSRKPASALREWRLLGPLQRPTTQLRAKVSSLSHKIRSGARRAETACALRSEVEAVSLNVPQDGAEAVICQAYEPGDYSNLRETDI
T2 sequence (P43140 whole entry): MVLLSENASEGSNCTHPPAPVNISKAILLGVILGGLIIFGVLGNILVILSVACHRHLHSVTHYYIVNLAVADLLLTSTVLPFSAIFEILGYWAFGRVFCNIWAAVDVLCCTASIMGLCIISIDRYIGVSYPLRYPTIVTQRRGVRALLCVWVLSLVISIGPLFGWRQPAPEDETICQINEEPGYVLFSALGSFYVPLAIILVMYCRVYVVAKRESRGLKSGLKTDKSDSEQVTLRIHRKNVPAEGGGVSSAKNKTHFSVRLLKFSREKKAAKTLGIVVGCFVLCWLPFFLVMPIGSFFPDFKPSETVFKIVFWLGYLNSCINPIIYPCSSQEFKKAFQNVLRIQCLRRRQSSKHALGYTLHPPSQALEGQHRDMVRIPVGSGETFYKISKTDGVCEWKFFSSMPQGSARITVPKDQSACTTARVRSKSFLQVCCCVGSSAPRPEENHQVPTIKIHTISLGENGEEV

Row | Structure (SMILES) | Ki [1] | Ki [2]
1 | COc1ccccc1N1CCN(CCCCn2nc(-n3cnc4ccccc43)ccc2=O)CC1 | 16 nM | 1.1 nM
2 | O=c1ccc(-n2ccnc2)nn1CCCN1CCN(c2ccccc2Cl)CC1 | 436.6 nM | 48.3 nM
3 | COc1ccccc1N1CCN(CCCn2nc(-n3cnc4ccccc43)ccc2=O)CC1 | 158.3 nM | 6.5 nM
4 | O=c1ccc(-n2cnc3ccccc32)nn1CCCN1CCN(c2ccccc2Cl)CC1 | 44.7 nM | 15.2 nM
5 | COc1ccccc1N1CCN(CCCn2nc(-n3ccnc3)ccc2=O)CC1 | 673.4 nM | 115.4 nM
